A word on the pEC50: it is the negative decadic logarithm of the EC50, by convention in mol/L.

This experiment addresses RIPK1 (recombinant GST-RIPK1 kinase domain, residues 1-327) (Homo sapiens (Human), UniProt Q13546). Nature of the experiment: RIPK1-ADP-Glo Enzymatic Assay. To be noted: ADP-Glo; 25 nM GST-RIPK1, 300 μM ATP; assay lower limit ~25 nM; read-out: RIPK1 V0 Ec50. The format is biochemical. The method, boiled down:
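ADP-Glo luminescence read after 150 min kinase reaction (300 μM ATP, 3 μM dephosphorylated MBP) using 25 nM Sf21-made GST-kinase domain (1-327), preincubated 30 min with compound. HEPES pH 7.3, 1% DMSO; ten-point 1:3 series from 100000 nM, EC50 via four-parameter sigmoidal regression.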
(ADP-Glo turns the ADP formed in a reaction into a luminescent signal.)

pEC50: −log10 of the molar value. Counter-ions that a name gives are not always drawn.

Chain of RIPK1 (recombinant GST-RIPK1 kinase domain, residues 1-327) (Q13546 1-327): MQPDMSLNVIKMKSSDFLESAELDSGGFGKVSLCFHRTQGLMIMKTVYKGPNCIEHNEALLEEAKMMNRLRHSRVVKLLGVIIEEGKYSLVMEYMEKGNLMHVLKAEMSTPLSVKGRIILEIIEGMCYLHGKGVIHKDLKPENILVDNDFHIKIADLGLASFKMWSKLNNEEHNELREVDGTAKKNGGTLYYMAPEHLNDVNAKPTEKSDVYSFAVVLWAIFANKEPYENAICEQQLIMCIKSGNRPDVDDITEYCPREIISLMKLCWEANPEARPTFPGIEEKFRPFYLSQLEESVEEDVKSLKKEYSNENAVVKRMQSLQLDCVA

As to `O=C(c1cccc(C2CC2)c1)N1CCC2(CC1)O[C@@H]1CC[C@@H](c3ccccc3)N1C2=O` [Example 6.156, (5′S,7a′R)-1-(3-cyclopropylbenzene-1-carbonyl)-5′-phen-yltetrahydro-3′H-spiro[piperidine-4,2′-pyrrolo[2,1-b][1,3]oxazol]-3′-one], the pEC50 was > 7.60.
With `COc1cc(C(=O)N2CCC3(CC2)O[C@@H]2CC[C@@H](c4ccccc4)N2C3=O)ccc1F` [Example 6.158, (5′S,7a′R)-1-(4-fluoro-3-methoxybenzene-1-carbonyl)-5′-phenyl-tetrahydro-3′H-spiro [piperidine-4,2′-pyrrolo[2,1-b][1,3]oxazol]-3′-one], the pEC50 was > 7.60.
Regarding `O=C(c1ccoc1C(F)(F)F)N1CCC2(CC1)O[C@@H]1CC[C@@H](c3cc(F)cc(F)c3)N1C2=O` [Example 6.67, (5′S,7a′R)-5′-(3,5-difluorophenyl)-1-[2-(trifluoromethyl)-furan-3-carbonyl]-tetrahydro-3′H-spiro [piperidine-4,2′-pyrrolo[2,1-b][1,3]-oxazol]-3′-one], the pEC50 is 7.30.
With `N#Cc1ccccc1CN1CCC2(CC1)O[C@@H]1CC[C@@H](c3cc(F)cc(F)c3)N1C2=O` [Example 22.3, 2-{[(5′S,7a′R)-5′-(3,5-difluorophenyl)-3′-oxotetrahydro-1H,3′H-spiro[piperidine-4,2′-pyrrolo[2,1-b][1,3]oxazol]-1-yl]methyl}benzonitrile] the figure was 6.09; with `O=C(c1cccc(N2CCCC2=O)c1)N1CCC2(CC1)O[C@@H]1CC[C@@H](c3cc(F)cc(F)c3)N1C2=O` [Example 6.56, (5′S,7a′R)-5′-(3,5-difluorophenyl)-1-[3-(2-oxopyrrolidin-1-yl)benzene-1-carbon-yl]tetrahydro-3′H-spiro[piperidine-4,2′-pyrrolo[2,1-b][1,3]-oxazol]-3′-one], > 7.60; with `Cc1occc1C(=O)N1CCC2(CC1)O[C@@H]1CC[C@@H](c3cc(F)cc(F)c3)N1C2=O` [Example 5.37, (5′S,7a′R)-5′-(3,5-difluoro-phenyl)-1-(2-methylfuran-3-carbonyl)tetrahydro-3′H-spiro[piperidine-4,2′-pyrrolo[2,1-b]oxazol]-3′-one], > 7.60.
The result for `O=C1N2[C@@H](CC[C@H]2c2cc(F)cc(F)c2)OC12CCN(c1nccn3nccc13)CC2` [Example 13.12, (5′S,7a′R)-5′-(3,5-difluorophenyl)-1-(pyrazolo[1,5-a]pyrazin-4-yl)tetrahydro-3′H-spiro[piperidine-4,2′-pyrrolo[2,1-b]oxazol]-3′-one, TFA salt] reads > 7.60; that for `Cc1cc(N2CCC3(CC2)O[C@@H]2CC[C@@H](c4ccccc4)N2C3=O)nc(C#N)n1` [Example 4.2, 4-methyl-6-[(5′S,7a′R)-3′-oxo-5′-phenyltetrahydro-1H,3′H-spiro[piperidine-4,2′-pyrrolo[2,1-b] [1,3]oxazol]-1-yl]pyrimidine-2-carbonitrile], > 7.60; that for `CN(C)C(=O)c1ccc(N2CCC3(CC2)O[C@@H]2CC[C@@H](c4ccccc4)N2C3=O)nc1` [Example 4.167, N,N-dimethyl-6-[(5′S,7a′R)-3′-oxo-5′-phenyltetrahydro-1H,3′H-spiro[piperidine-4,2′-pyrrolo[2,1-b] [1,3]oxazol]-1-yl]pyridine-3-carboxamide], 6.59.
`COC(=O)c1cc(C)c(N2CCC3(CC2)O[C@@H]2CC[C@@H](c4ccccc4)N2C3=O)nc1C#N` [Example 4.188, methyl 2-cyano-5-methyl-6-[(5′S,7a′R)-3′-oxo-5′-phenyltetrahydro-1H,3′H-spiro[piperidine-4,2′-pyrrolo[2,1-b] [1,3]oxazol]-1-yl]pyridine-3-carboxylate]: the pEC50 is 6.27.
Regarding `O=C1N2[C@@H](CC[C@H]2c2ccccc2)OC12CCN(c1nc3ccccc3o1)CC2` [Example 4.154, (5′S,7a′R)-1-(1,3-benzoxazol-2-yl)-5′-phenyltetrahydro-3′H-spiro[piperidine-4,2′-pyrrolo[2,1-b] [1,3]oxazol]-3′-one], the pEC50 is 7.45.
The result for `Cc1nccn1-c1cc(N2CCC3(CC2)O[C@@H]2CC[C@@H](c4ccccc4)N2C3=O)ncn1` [Example 4.175, (5′S,7a′R)-1-[6-(2-methyl-1H-imidazol-1-yl)pyrimidin-4-yl]-5′-phenyltetrahydro-3′H-spiro[piperidine-4,2′-pyrrolo[2,1-b] [1,3]oxazol]-3′-one] reads > 7.60; that for `Cc1ccc(C)c(C(=O)N2CCC3(CC2)O[C@@H]2CC[C@@H](c4ccccc4)N2C3=O)c1` [Example 6.142, (5′S,7a′R)-1-(2,5-dimethylbenzene-1-carbonyl)-5′-phenyl-tetrahydro-3′H-spiro [piperidine-4,2′-pyrrolo[2,1-b][1,3]oxazol]-3′-one], 7.12; that for `O=C(C1CC1)N1CCC2(CC1)O[C@@H]1CC[C@@H](c3cc(F)cc(F)c3)N1C2=O` [Example 1.8, (5′S,7a′R)-1-(cyclopropanecarbonyl)-5′-(3,5-difluorophenyl)tetrahydro-3′H-spiro[piperidine-4,2′-pyrrolo[2,1-b] [1,3]oxazol]-3′-one], 6.59.
The result for `N#Cc1cnc(N2CC3(C2)O[C@@H]2CC[C@@H](c4ccccc4F)N2C3=O)nc1` [Example 4.119, 2-((5′S,7a′R)-5′-(2-fluorophenyl)-3′-oxotetrahydro-3′H-spiro[azetidine-3,2′-pyrrolo[2,1-b]oxazol]-1-yl)pyrimidine-5-carbonitrile] reads 6.27; that for `O=C1N2[C@@H](CC[C@H]2c2ccccc2)OC12CN(c1cccc3ncnn13)C2` [Example 13.22, (5′S,7a′R)-1-([1,2,4]triazolo[1,5-a]pyridin-5-yl)-5′-phenyltetrahydro-3′H-spiro[azetidine-3,2′-pyrrolo[2,1-b]oxazol]-3′-one, TFA salt], 7.42; that for `CC1CC2(CCN1c1ccnc3c(F)cnn13)O[C@@H]1CC[C@@H](c3ccccc3)N1C2=O` (stereo partly drawn) [Example 4.225, (4R,5′S,7a′R)-1-(3-fluoropyrazolo[1,5-a]pyrimidin-7-yl)-2-methyl-5′-phenyltetrahydro-3′H-spiro[piperidine-4,2′-pyrrolo[2,1-b] [1,3]oxazol]-3′-one], 7.50.
With `O=C1N2[C@H](OC13CCN(c1ccnc4ccnn14)CC3)[C@H](O)C[C@H]2c1ccccc1` [Example 4.248, (5′S,7′R,7a′R)-7′-hydroxy-5′-phenyl-1-(pyrazolo[1,5-a]pyrimidin-7-yl)tetrahydro-3′H-spiro[piperidine-4,2′-pyrrolo[2,1-b] [1,3]oxazol]-3′-one] the figure was 7.47; with `Cc1ncc(C)c(N2CCC3(CC2)O[C@@H]2CC[C@@H](c4ccccc4)N2C3=O)n1` [Example 11.34, (5′S,7a′R)-1-(2,5-dimethylpyrimidin-4-yl)-5′-phenyltetrahydro-3′H-spiro[piperidine-4,2′-pyrrolo[2,1-b][1,3]oxazol]-3′-one], 6.22; with `O=C1N2[C@@H](CC[C@H]2c2ccccc2)OC12CCN(c1cc(OC3CCC3)ccn1)CC2` [Example 11.20, (5′S,7a′R)-1-[4-(cyclobutyloxy)pyridin-2-yl]-5′-phenyltetrahydro-3′H-spiro[piperidine-4,2′-pyrrolo[2,1-b][1,3]oxazol]-3′-one], 7.57.
Regarding `NC(=O)c1ccc(N2CCC3(CC2)O[C@@H]2CC[C@@H](c4ccccc4)N2C3=O)nc1Cl` [Example 4.201, 2-chloro-6-[(5′S,7a′R)-3′-oxo-5′-phenyltetrahydro-1H,3′H-spiro[piperidine-4,2′-pyrrolo[2,1-b] [1,3]oxazol]-1-yl]pyridine-3-carboxamide], the pEC50 was > 7.60.
Turning to `O=C1N2[C@@H](CC[C@H]2c2ccccc2)OC12CCN(c1ncccc1Cl)CC2` [Example 4.256, (5′S,7a′R)-1-(3-chloropyridin-2-yl)-5′-phenyltetrahydro-3′H-spiro[piperidine-4,2′-pyrrolo[2,1-b] [1,3]oxazol]-3′-one], the pEC50 was 7.60.
The result for `O=C1N2[C@@H](CC[C@H]2c2ccccc2)SC12CCN(c1ccnc3ccnn13)CC2` [Example 4.116, (5′S,7a′R)-5′-phenyl-1-(pyrazolo[1,5-a]pyrimidin-7-yl)tetrahydro-3′H-spiro[piperidine-4,2′-pyrrolo[2,1-b]thiazol]-3′-one] reads > 7.60; that for `Cc1ccccc1CN1CCC2(CC1)O[C@@H]1CC[C@@H](c3cc(F)cc(F)c3)N1C2=O` [Example 22.5, (5′S,7a′R)-5′-(3,5-difluorophenyl)-1-[(2-methylphenyl)methyl] tetrahydro-3′H-spiro[piperidine-4,2′-pyrrolo[2,1-b][1,3]oxazol]-3′-one], 6.67.
With `O=C(c1ccc(F)cc1F)N1CCC2(CC1)O[C@@H]1CC[C@@H](c3cccc(F)c3)N1C2=O` [Example 6.114, (5′S,7a′R)-1-(2,4-difluorobenzene-1-carbonyl)-5′-(3-fluoro-phenyl)tetrahydro-3′H-spiro[piperidine-4,2′-pyrrolo[2,1-b] [1,3]oxazol]-3′-one] the figure was > 7.60; with `Cc1nnc(N2CC3(C2)O[C@@H]2CC[C@@H](c4ccccc4F)N2C3=O)o1` [Example 4.273, (5′S,7a′R)-5′-(2-fluorophenyl)-1-(5-methyl-1,3,4-oxadiazol-2-yl)tetrahydro-3′H-spiro[azetidine-3,2′-pyrrolo[2,1-b] [1,3]oxazol]-3′-one], 6.25; with `O=C(c1cc(F)ccn1)N1CCC2(CC1)O[C@@H]1CC[C@@H](c3cc(F)cc(F)c3)N1C2=O` [Example 6.92, (5′S,7a′R)-5′-(3,5-difluorophenyl)-1-(4-fluoropyridine-2-carbonyl)tetrahydro-3′H-spiro[piperidine-4,2′-pyrrolo[2,1-b] [1,3]oxazol]-3′-one], 7.39.

The values above are taken from patent US12180226B2, “Spirotricycle RIPK1 inhibitors and methods of uses thereof” (Merck Sharp & Dohme LLC, priority 2021, dated 2024).
